Experiments:
[1] = system: MHC class I H-2Kb on DC2.4; assay: Surface MHC class I H-2Kb on DC2.4 (AF6-88.5.5.3 flow cytometry); assay type: cell-based, murine; settings: DC2.4, 25 μg/mL
Experimental: By using an MHC class I H-2K^b specific antibody, a relative comparison of the surface MHC class I was measured before and after BzFβ treatment of DC2.4 and IMG cells. […] Cells were centrifuged and washed using cold FACS buffer (DPBS with 5% FBS, 2 mM EDTA, 0.1% sodium azide). Cells were blocked with Fc block (bioLegend™; cat. no. 101320) for 10 min to 15 min to inhibit non-specific binding, followed by staining with fluorophore-conjugated antibodies; one set of cells was stained with the PE-labeled MHC/SIINFEKL specific antibody (clone 25-D1.16, Invitrogen™, Thermo Fisher Scientific Inc., Waltham, MA; cat. no. 12-5743-82), and the other set was stained with the PE-labeled MHC class I H-2Kb specific antibody (AF6-88.5.5.3,Invitrogen™, Thermo Fisher Scientific Inc., Waltham, MA; cat. no. 12-5958-82) PE-labeled MHC class I H-2kb specific (clone AF6-88.5.5.3; Invitrogen™, Thermo Fisher Scientific Inc., Waltham, MA; cat. no. 12-5958-82), for 30 min at 4° C. After washing, the cells were subjected to flow cytometric analysis with the Attune NxT Flow Cytometer (Invitrogen). Cells were gated based on live single-cell populations and positives were assessed using isotype controls and fluor-minus-one analysis when needed. Data were analyzed using the Attune NxT software or FlowJo versions 10.7 and 10.8.

[2] = system: MHC class I H-2Kb on DC2.4; assay: MHC class I recovery after acid stripping of DC2.4; assay type: cell-based, murine
Experimental: To determine if BzFβ affects synthesis or cycling of the MHC class I molecules, the class I molecule/peptide complexes were stripped from the surface of DC2.4 cells using a citric acid buffer, then treated with 25 μg/mL BzFβ, 5 mM of the dipeptide GL, or 3 μg/mL BFA (see Example 4) as a negative control.
An acid wash to strip the cell surface of MHC class I was performed as described with modifications. (Montealegre, et al., Dissociation of β2-microglobulin determines the surface quality control of major histocompatibility complex class I molecules. FASEB. 2015 July; 29(7):2780-8). DC2.4 were incubated overnight at 37° C. at 1×10^5. Cells were washed for 2 min in acidic buffer [(pH 2.5) 465 mM Citric acid, 35 mM sodium citrate, in PBS with 1% v/v FBS] or neutral buffer [(pH 7.4) PBS with 1% v/v FBS]. Afterwards the pH was neutralized by the addition of cDMEM. The cells were washed with PBS and treated with BzFβ or GL in cDMEM for various times to allow for MHC class I recovery at 37° C. Cells were washed and stained with an H-2Kb-specific antibody (Invitrogen, cat. no. 12-5958-82) and analyzed by flow cytometry as described previously
MHC I recovery on the cell surface at various time points was detected by flow cytometry using the PE-labeled MHC class I H-2Kb specific antibody (AF6-88.5.5.3). […] At 6 hours >60% of the MHC class I molecules recovered, seen in FIG. 14.

[3] = biological target: T1, MHC class I H-2Kb tetramer (Mus musculus, UniProt P01901); assay: QuickSwitch tetramer peptide exchange assay, H-2Kb; assay type: biochemical, murine; settings: p<0.001; p=0.0013
T1 construct: purchased MBL International Corporation TB-7400-K2
T1 sequence (P01901 22-295 limits assumed): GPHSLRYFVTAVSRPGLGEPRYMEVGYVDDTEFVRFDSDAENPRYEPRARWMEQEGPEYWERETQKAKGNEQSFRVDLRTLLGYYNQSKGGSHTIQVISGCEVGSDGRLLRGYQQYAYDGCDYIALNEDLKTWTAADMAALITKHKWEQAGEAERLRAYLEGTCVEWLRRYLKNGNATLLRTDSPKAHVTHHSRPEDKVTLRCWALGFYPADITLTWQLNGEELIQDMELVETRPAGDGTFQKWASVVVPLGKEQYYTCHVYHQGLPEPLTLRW
T1 sequence (P61769 21-119 partner): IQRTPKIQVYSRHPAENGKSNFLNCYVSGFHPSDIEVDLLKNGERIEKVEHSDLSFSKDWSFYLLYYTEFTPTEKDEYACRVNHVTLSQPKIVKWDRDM

Compound: O=C(O)/C=C/c1ccc2occc2c1 [BzFβ, (2E)-3-(1-benzofuran-5-yl)prop-2-enoic acid]
- overall surface expression (MFI) of MHC class I ([1]; 1-4 h): no significant effect
- overall surface expression (MFI) of MHC class I ([1]; 24 h): significant increase
- MHC class I recovery after acid stripping ([2]; 25 μg/mL BzFβ or 5 mM GL during recovery, 4-24 h): did not show an increase in MHC class I recovery
- B3Z response post acid-stripping ([2]; treated during recovery, data not shown): still able to increase the B3Z response
- displacing pre-bound peptide versus no exchange factor or provided exchange molecule [3]: significantly better

From US20250381165A1, “Method of Use for Benzofuran Compounds” (Tampa Bay Research Institute, Inc., priority 2024, published 2025)
